Measured values reported in US8512739B2, “Use of low-glycemic sweeteners in food and beverage compositions” (Cargill, Incorporated, priority 2002, dated 2013).

Experiments:
[1] = tested on: Enzyme from the LM NRRL-B-21297 strain; assay: Suitability of acceptors: oligosaccharide formation from sucrose and acceptor; assay type: biochemical, Leuconostoc mesenteroides; settings: for Weight Ratio of Oligosaccharide to Fructose: 0.4% by weight each of sucrose and acceptor, pH 6, 2 hours at 37° C., DP3-DP7 minus starting material; for suitability as acceptor: compared with the acceptors of Table 2.0, two hour reaction time
Description: Enzyme from the LM NRRL-B-21297 strain was tested to determine the suitability of various acceptors. Enzyme was prepared using the methods described herein.
In determining the suitability of the preparation of the sucrose/acceptor products, 0.4% by weight of each sucrose and acceptor were mixed with enzyme solution in 0.01 M sodium gluconate buffer, pH 6, and the reaction proceeded for 2 hours at 37° C.
The carbohydrate profiles of products generated by the enzyme reactions with the blends of sucrose and syrups and syrup solids herein, were analyzed by high performance liquid chromatography (HPLC) using two (2) Bio-Rad Aminex HPX42A carbohydrate columns (300 mm×7.8 mm) available from Bio-Rad, Hercules, Calif., in succession, with water as the eluate at 0.2 ml/min, at a temperature of 65° C.
The reaction rate was estimated based on the amount of oligosaccharides generated from each acceptor and normalized against the fructose concentration in each reaction. The results are reported below in Table 2.0. The values reported for oligosaccharides to fructose are for DP3-DP7 minus starting material.

rat intestinal powder = assay: In vitro digestibility assay using rat intestinal powder; assay type: in vitro ADME; settings: in 4 hours
Description: The results provided in this example are derived from in vitro digestibility assays using rat intestinal powder available from Sigma/Aldrich, Saint Louis, Mo., Catalog Number I-1630). […] Free glucose concentration in the reaction mixture was analyzed over time by the HPLC method described above.

Compound | Weight Ratio of Oligosaccharide to Fructose [1] | digested (rat intestinal powder) | suitability as acceptor [1]
OC[C@H]1O[C@H](OC[C@H]2O[C@H](O[C@H]3[C@H](O)[C@@H](O)C(O)O[C@@H]3CO)[C@H](O)[C@@H](O)[C@@H]2O)[C@H](O)[C@@H](O)[C@@H]1O (stereo partly drawn) [Panose] | 1.56 | – | –
OC[C@H]1O[C@H](OC[C@H]2OC(O)[C@H](O)[C@@H](O)[C@@H]2O)[C@H](O)[C@@H](O)[C@@H]1O (stereo partly drawn) [Isomaltose] | 0.93 | – | –
Maltotriose | 0.53 | – | –
OC[C@H]1O[C@H](O[C@H]2[C@H](O)[C@@H](O)[C@@H](O[C@H]3[C@H](O)[C@@H](O)[C@@H](O[C@H]4[C@H](O)[C@@H](O)C(O)O[C@@H]4CO)O[C@@H]3CO)O[C@@H]2CO)[C@H](O)[C@@H](O)[C@@H]1O (stereo partly drawn) [Maltotetrose] | 0.38 | – | –
OC[C@H]1O[C@H](O[C@H]2[C@H](O)[C@@H](O)C(O)O[C@@H]2CO)[C@H](O)[C@@H](O)[C@@H]1O (mixture of isomers) [Maltose, reference compound] | 2.02 | 88% | –
O[C@H]1[C@H](O)[C@@H](O)[C@H](O)[C@@H](O)[C@H]1O [myo-inositol] | – | – | not as effective acceptors
O=C[C@@H](O)[C@H](O)[C@H](O)CO [arabinose] | – | – | not as effective acceptors
O=C[C@H](O)[C@@H](O)[C@H](O)CO [xylose] | – | – | not as effective acceptors
